What all share (assay type): in vivo
The subject of assay [1] is Ipomea hederaceae (IPOHE). Description: Pre-emergence biological efficacy, glasshouse pot test. Conditions: Ipomoea hederacea, 312 h, 1,000 g/ha, evaluated after 13 days, 100=total damage, 0=no damage, read-out: Percentage damage caused to weed species, pre-emergence, IPOHE. Put shortly: (§1)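 Plants treated pre-emergence received 1000 or 250 g/ha in an acetone/water (50:50) vehicle containing 0.5% Tween 20 and were kept in a glasshouse at 24/16 °C with 14 h light. Injury was rated on day 13, where 100 meant total damage.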

Assay [2] relates to Amaranthus retroflexus (AMARE). The description is as above. Conditions: 312 h, 1,000 g/ha, evaluated after 13 days, 100=total damage, 0=no damage, read-out: Percentage damage caused to weed species, pre-emergence, AMARE. A digest of the protocol: as §1
In assay [3] the test system is Echinochloa crus-galli (ECHCG). Described as above. Conditions: 312 h, 1,000 g/ha, evaluated after 13 days, 100=total damage, 0=no damage, read-out: Percentage damage caused to weed species, pre-emergence, ECHCG. A digest of the protocol:
as §1

Assay [4] concerns Solanum nigrum (SOLNI). Described as above. Conditions: 312 h, 1,000 g/ha, evaluated after 13 days, 100=total damage, 0=no damage, read-out: Percentage damage caused to weed species, pre-emergence, SOLNI. Put shortly: as §1
Assay [5] relates to Setaria faberi (SETFA). The description is as above. Conditions: 312 h, 1,000 g/ha, evaluated after 13 days, 100=total damage, 0=no damage, read-out: Percentage damage caused to weed species, pre-emergence, SETFA. Put shortly:
as §1

For assay [6], the system named is Alopecurus myosuroides (ALOMY). The description is as above. Conditions: 312 h, 1,000 g/ha, evaluated after 13 days, 100=total damage, 0=no damage, read-out: Percentage damage caused to weed species, pre-emergence, ALOMY. A digest of the protocol: as §1
The subject of assay [7] is Ipomea hederaceae (IPOHE). Description: Post-emergence biological efficacy, glasshouse pot test. Conditions: Ipomoea hederacea, 312 h, 1,000 g/ha, evaluated after 13 days, 100=total damage, 0=no damage, read-out: Percentage damage caused to weed species, post-emergence, IPOHE. A digest of the protocol: (§2)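 Damage, rated 0 (none) to 100 (total) at 13 days after treatment, followed post-emergence spraying at 250 or 1000 g/ha in acetone/water with 0.5% Tween 20. Plants had been raised 8 days beforehand under glasshouse conditions of 24/16 °C day/night, 14 h light and 65% humidity.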

In assay [8] the test system is Amaranthus retroflexus (AMARE). The assay is described as above. Conditions: 312 h, 1,000 g/ha, evaluated after 13 days, 100=total damage, 0=no damage, read-out: Percentage damage caused to weed species, post-emergence, AMARE. A digest of the protocol: as §2
For assay [9], the system named is Echinochloa crus-galli (ECHCG). The assay is described as above. Conditions: 312 h, 1,000 g/ha, evaluated after 13 days, 100=total damage, 0=no damage, read-out: Percentage damage caused to weed species, post-emergence, ECHCG. Put shortly:
as §2

In assay [10] the test system is Solanum nigrum (SOLNI). The description is as above. Conditions: 312 h, 1,000 g/ha, evaluated after 13 days, 100=total damage, 0=no damage, read-out: Percentage damage caused to weed species, post-emergence, SOLNI. A digest of the protocol:
as §2

Assay [11] relates to Setaria faberi (SETFA). The assay is described as above. Conditions: 312 h, 1,000 g/ha, evaluated after 13 days, 100=total damage, 0=no damage, read-out: Percentage damage caused to weed species, post-emergence, SETFA. Put shortly:
as §2

The subject of assay [12] is Alopecurus myosuroides (ALOMY). The assay is described as above. Conditions: 312 h, 1,000 g/ha, evaluated after 13 days, 100=total damage, 0=no damage, read-out: Percentage damage caused to weed species, post-emergence, ALOMY. Put shortly:
as §2

For the compound `COC(=O)c1nc(Cl)cc(NCc2ccncc2)c1Cl` [Compound 80-2, 3,6-Dichloro-4-(pyridin-4-ylmethylamino)-pyridine-2-carboxylic acid methyl ester], the pest or weed control at 1000 g/ha is 90% in assay [1]; 100% in assay [2]; 20% in assay [3]; 100% in the assay with Solanum nigrum (SOLNI) [4]; 80% with Setaria faberi (SETFA) [5]; 70% in [6]. Also, the pest or weed control at 1000 g/ha in [7] worked out at 70%; in assay [8], 90%; in [9], 60%; in the assay with Solanum nigrum (SOLNI) [10], 100%; in the assay with Setaria faberi (SETFA) [11], 50%; in assay [12], 40%.
As to `C=Cc1c(NCc2ccco2)cc(Cl)nc1C(=O)O` [Compound 26-11, 6-chloro-3-ethenyl-4-[(furan-2-ylmethyl)-amino]-pyridine-2-carboxylic acid], the pest or weed control at 1000 g/ha in assay [1] was found to be 100%; in assay [2], 100%; in assay [3], 90%; with Solanum nigrum (SOLNI) [4], 100%; in the assay on Setaria faberi (SETFA) [5] it was 100%; in assay [6] it was 100%. In addition, the pest or weed control at 1000 g/ha turned out to be 80% in [7]; 100% in [8]; 80% in assay [9]; 100% in the assay on Solanum nigrum (SOLNI) [10]; 90% in the assay on Setaria faberi (SETFA) [11]; 80% in assay [12].
With `COC(=O)c1nc(Cl)cc(NCc2ccccc2F)c1Cl` [Compound 6-2, 3,6-Dichloro-4-[(2-fluorophenylmethyl)-amino]-pyridine-2-carboxylic acid methyl ester], the pest or weed control at 1000 g/ha in assay [1] turned out to be 90%; in [2] it was 100%; in [3] it was 60%; with Solanum nigrum (SOLNI) [4], 100%; in the assay on Setaria faberi (SETFA) [5] it was 80%; in assay [6], 70%. In addition, the pest or weed control at 1000 g/ha in assay [7] was determined as 70%; in [8], 100%; in [9], 40%; with Solanum nigrum (SOLNI) [10] it was 100%; in the assay with Setaria faberi (SETFA) [11], 90%; in assay [12], 60%.
As for `C=Cc1c(NCc2ccco2)cc(Cl)nc1C(=O)OC` [Compound 26-12, 6-Chloro-3-ethenyl-4-[(furan-2-ylmethyl)-amino]-pyridine-2-carboxylic acid methyl ester], the pest or weed control at 1000 g/ha in assay [1] amounted to 90%; in [2] it was 100%; in assay [3], 90%; with Solanum nigrum (SOLNI) [4] it was 100%; in the assay on Setaria faberi (SETFA) [5], 100%; in assay [6] it was 90%. Besides, the pest or weed control at 1000 g/ha in assay [7] amounted to 70%; in assay [8], 100%; in assay [9], 80%; in the assay on Solanum nigrum (SOLNI) [10], 100%; with Setaria faberi (SETFA) [11] it was 90%; in [12] it was 80%.
With `COC(=O)c1nc(Cl)cc(NCc2ccco2)c1Cl` [Compound 26-2, 3,6-dichloro-4-[(furan-2-ylmethyl)-amino]-pyridine-2-carboxylic acid methyl ester], the pest or weed control at 1000 g/ha in [1] stood at 90%; in assay [2], 100%; in [3], 30%; with Solanum nigrum (SOLNI) [4], 100%; in the assay with Setaria faberi (SETFA) [5] it was 90%; in assay [6], 70%. Besides, the pest or weed control at 1000 g/ha in assay [7] turned out to be 60%; in assay [8], 100%; in assay [9], 30%; with Solanum nigrum (SOLNI) [10] it was 100%; in the assay on Setaria faberi (SETFA) [11], 90%; in assay [12], 40%.
With `C=Cc1c(NCc2ccco2)cc(-c2ccc(Cl)c(OC)c2F)nc1C(=O)OC` [Compound 26-174, 6-(4-chloro-2-fluoro-3-methoxy-phenyl)-3-ethenyl-4-[(furan-2-ylmethyl)-amino]-pyridine-2-carboxylic acid methyl ester], the pest or weed control at 1000 g/ha in assay [1] was 90%; in [2], 80%; in [3] it was 30%; in the assay with Solanum nigrum (SOLNI) [4], 90%; with Setaria faberi (SETFA) [5], 10%; in [6], 20%. Besides, the pest or weed control at 1000 g/ha in [7] worked out at 50%; in assay [8], 100%; in assay [9], 20%; in the assay on Solanum nigrum (SOLNI) [10] it was 100%; in the assay on Setaria faberi (SETFA) [11] it was 0%; in [12], 10%.
For `COC(=O)c1nc(Cl)cc(NCc2ccccn2)c1Cl` [Compound 31-2, 3,6-Dichloro-4-(pyridin-2-ylmethylamino)-pyridine-2-carboxylic acid methyl ester], the pest or weed control at 1000 g/ha in assay [1] came to 100%; in assay [2], 100%; in assay [3], 60%; with Solanum nigrum (SOLNI) [4] it was 100%; in the assay with Setaria faberi (SETFA) [5], 80%; in assay [6] it was 70%. For the same compound, the pest or weed control at 1000 g/ha in assay [7] turned out to be 80%; in assay [8] it was 100%; in assay [9] it was 20%; in the assay with Solanum nigrum (SOLNI) [10], 100%; in the assay with Setaria faberi (SETFA) [11], 80%; in assay [12], 50%.
Take `COC(=O)c1nc(Cl)cc(NCc2ccccc2[N+](=O)[O-])c1Cl` [Compound 15-2, 3,6-Dichloro-4-[(2-nitrophenylmethyl)-amino]-pyridine-2-carboxylic acid methyl ester]: the pest or weed control at 1000 g/ha in assay [1] stood at 100%; in assay [2] it was 100%; in assay [3], 80%; with Solanum nigrum (SOLNI) [4] it was 100%; in the assay on Setaria faberi (SETFA) [5] it was 90%; in [6], 90%. For the same compound, the pest or weed control at 1000 g/ha in assay [7] came to 90%; in assay [8] it was 100%; in assay [9] it was 70%; in the assay on Solanum nigrum (SOLNI) [10], 100%; in the assay with Setaria faberi (SETFA) [11] it was 90%; in [12] it was 70%.
Turning to `COC(=O)c1nc(Cl)cc(NCc2ncccc2Cl)c1Br` [Compound 32-17, 3-Bromo-6-chloro-4-[(3-chloro-pyridin-2-ylmethyl)-amino]-pyridine-2-carboxylic acid methyl ester], the pest or weed control at 1000 g/ha is 80% in [1]; 90% in assay [2]; 0% in assay [3]; 80% in the assay on Solanum nigrum (SOLNI) [4]; 0% in the assay with Setaria faberi (SETFA) [5]; 10% in assay [6]. In addition, the pest or weed control at 1000 g/ha amounted to 50% in [7]; 80% in assay [8]; 20% in assay [9]; 90% in the assay on Solanum nigrum (SOLNI) [10]; 50% with Setaria faberi (SETFA) [11]; 20% in assay [12].

The values are drawn from US20120100990A1, “4 -AMINOPICOLINATES AND THEIR USE AS HERBICIDES” (SYNGENTA CROP PROTECTION LLC, priority 2009, published 2012).
